Measured values published in patent US10434112B2, “Use of agonists of formyl peptide receptor 2 for treating dermatological diseases” (Allergan, Inc., priority 2013, dated 2019).

biological target: human FPR2 receptor (Homo sapiens (Human), UniProt P25090); assay: FLIPR Ca+2 response in HEK-Gα16 cells stably expressing the human FPR2 receptor; type: cell-based; set-up: FPR2 (% eff): unit not given here; conditions: Table 4
Experimental: FLIPR: HEK-Gα16 cells stably expressing the human FPR2 receptor was utilized. Cells were plated into 384-well poly-D-lysine coated plates at a density of 18,000 cells per well one day prior to use. The growth media was DMEM medium supplemented with 10% fetal bovine serum (FBS), 1% antibiotic-antimycotic, 50 μg/ml hygromycin, and 400 μg/ml geneticin. On the day of the experiment, the cells were washed twice with Hank's Balanced Salt Solution supplemented with 20 mM HEPES (HBSS/hepes buffer). The cells were then dye loaded with 2 μM Fluo-4 diluted in the HBSS/Hepes buffer and incubated at 37° C. for 40 minutes. Extracellular dye was removed by washing the cell plates four times prior to placing the plates in the FLIPR (Fluorometric Imaging Plate Reader, Molecular Devices). Ligands were diluted in HBSS/Hepes buffer and prepared in 384-well microplates. Data for Ca^+2 responses were obtained in relative fluorescence units.

human FPR2 receptor, sequence (P25090 whole entry): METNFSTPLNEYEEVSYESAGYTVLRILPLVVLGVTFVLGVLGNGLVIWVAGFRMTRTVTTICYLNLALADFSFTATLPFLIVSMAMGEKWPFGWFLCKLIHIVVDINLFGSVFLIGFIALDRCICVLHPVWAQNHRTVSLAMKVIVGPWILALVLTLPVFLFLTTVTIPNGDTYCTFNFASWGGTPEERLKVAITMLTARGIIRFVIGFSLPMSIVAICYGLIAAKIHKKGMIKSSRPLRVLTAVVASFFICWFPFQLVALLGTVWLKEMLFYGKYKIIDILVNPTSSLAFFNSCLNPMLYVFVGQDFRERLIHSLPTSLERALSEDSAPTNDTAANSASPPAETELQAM

| SMILES | EC50 |
| --- | --- |
| CC1(CCc2cccc(O)c2)NC(=O)N(NC(=O)Nc2ccc(Br)cc2)C1=O (centres unmarked) [Compound 108, 1-(4-bromophenyl)-3-{4-[2-(3-hydroxyphenyl)ethyl]-4-methyl-2,5-dioxoimidazolidin-1-yl}urea] | 2.1 nM |
| NC(=O)C1C(C(=O)Nc2ccc(Br)cc2)C2CCC1C21CC1 (single isomer, unassigned; (-)) [Compound 45, (−) N-(4-bromophenyl)spiro[bicyclo [2.2.1]heptane-7,1′-cyclopropane]-2,3-dicarboxamide] | < 1 nM |
| O=C(Nc1ccc(Br)cc1F)N[C@@H](Cc1ccccc1)C(=O)NCCO [Compound 71, (2S)-2-{[(4-bromo-2-fluorophenyl)carbamoyl]amino}-N-(2-hydroxyethyl)-3-phenylpropanamide] | 15.6 nM |

Further lines, results first:

| EC50 | SMILES |
| --- | --- |
| 18.7 nM | CCC(CC)(NC(=O)Nc1ccc(Br)cc1)C(=O)NCC(=O)O [Compound 113] |
| 3 nM | CSc1ccc(NC(=O)N[C@@H](CC(C)C)C(=O)NCC(=O)O)cc1 [Compound 130, {[(2S)-4-methyl-2-({[4-(methylsulfanyl)phenyl]carbamoyl}amino)pentanoyl]amino}acetic acid] |
| 1.4 nM | O=C(O)CNC(=O)[C@H](Cc1c[nH]c2ccccc12)NC(=O)Nc1ccc(Br)cc1 (stereo in doubt) [Compound 150, {[2-{[(4-bromophenyl)carbamoyl]amino}-3-(1H-indol-3-yl)propanoyl]amino}acetic acid] |

same assay, conditions: Table 4; value in brackets, given mostly as fraction

| SMILES | FPR2 (% eff) |
| --- | --- |
| CCOP(=O)(O)CNC(=O)[C@H](Cc1ccccc1)NC(=O)Nc1ccc(Br)cc1 [Compound 126, ethyl hydrogen ({[(2S)-2-{[(4-bromophenyl)carbamoyl]amino}3-phenylpropanoyl]amino}methyl)phosphonate] | 1.0 |
| CC1(CCc2cccc(O)c2)NC(=O)N(NC(=O)Nc2ccc(Br)cc2)C1=O (centres unmarked) [Compound 108, 1-(4-bromophenyl)-3-{4-[2-(3-hydroxyphenyl)ethyl]-4-methyl-2,5-dioxoimidazolidin-1-yl}urea] | 100 |
| CC(C)C[C@H](NC(=O)Nc1ccc(Br)cc1)C(=O)NCc1cc(O)no1 [Compound 116, (2S)-2-{[(4-bromophenyl)carbamoyl]amino}-N-[(3-hydroxy-1,2-oxazol-5-yl)methyl]-4-methylpentanamide] | 1.0 |
| CC1(CCc2cccc(O)c2)NC(=O)N(NC(=O)Nc2ccc(Br)cc2F)C1=O (centres unmarked) [Compound 107, 1-(4-bromo-2-fluorophenyl)-3-{4-[2-(3-hydroxyphenyl)ethyl]-4-methyl-2,5-dioxoimidazolidin-1-yl}urea] | 0.79 |
| CC1(CCc2cccs2)NC(=O)N(NC(=O)Nc2ccc(Br)cc2)C1=O (centres unmarked) [Compound 88, 1-(4-bromophenyl)-3-{4-methyl-2,5-dioxo-4-[2-(thiophen-2-yl)ethyl]imidazolidin-1-yl}urea] | 0.94 |
| CC1(CCc2ccc(O)c(F)c2)NC(=O)N(NC(=O)Nc2ccc(Br)cc2)C1=O (centres unmarked) [Compound 99, 1-(4-bromophenyl)-3-{4-[2-(3-fluoro-4-hydroxyphenyl)ethyl]-4-methyl-2,5-dioxoimidazolidin-1-yl}urea] | 1.0 |
| CSc1ccc(NC(=O)Nc2ccc3c(c2)C(=O)N(CCc2c[nH]cn2)C(c2ccc(C#N)cc2)C3)cc1 (centres unmarked) [Compound 17, 1-{3-(4-cyanophenyl)-2-[2-(1H-imidazol-4-yl)ethyl]-1-oxo-1,2,3,4-tetrahydroisoquinolin-7-yl}-3-[4-(methylsulfanyl)phenyl]urea] | 0.92 |
| CC1(CCc2ccc(O)cc2)NC(=O)N(NC(=O)Nc2ccc(Br)cc2F)C1=O (centres unmarked) [Compound 89, 1-(4-bromo-2-fluorophenyl)-3-{4-[2-(4-hydroxyphenyl)ethyl]-4-methyl-2,5-dioxoimidazolidin-1-yl}urea] | 0.85 |
| CCC[C@H](NC(=O)Nc1ccc(Br)cc1)C(=O)NCP(=O)(OCC)OCC [Compound 117, diethyl ({[(2S)-2-{[(4-bromophenyl)carbamoyl]amino}pentanoyl]amino}methy) phosphonate] | 1.0 |
| CS(=O)(=O)c1ccc(NC(=O)Nc2ccc3c(c2)C(=O)N(CCCN)C(c2ccc(C#N)cc2)C3)cc1 (centres unmarked) [Compound 18, 1-[2-(3-aminopropyl)-3-(4-cyanophenyl)-1-oxo-1,2,3,4-tetrahydroisoquinolin-7-yl]-3-[4-(methylsulfonyl)phenyl]urea] | 0.86 |
| CCOP(=O)(CNC(=O)[C@H](CC(C)C)NC(=O)Nc1ccc(SC)cc1)OCC [Compound 138, diethyl ({[(2S)-4-methyl-2-({[4-(methylsulfanyl)phenyl]carbamoyl}amino)pentanoyl]amino}methyl)phosphonate] | 0.91 |
| NC(=O)C1C(C(=O)Nc2ccc(Br)cc2)C2CCC1C21CC1 (single isomer, unassigned; (-)) [Compound 45, (−) N-(4-bromophenyl)spiro[bicyclo [2.2.1]heptane-7,1′-cyclopropane]-2,3-dicarboxamide] | 0.91 |
| O=C(Nc1ccc(Br)cc1F)N[C@@H](Cc1ccccc1)C(=O)NCCO [Compound 71, (2S)-2-{[(4-bromo-2-fluorophenyl)carbamoyl]amino}-N-(2-hydroxyethyl)-3-phenylpropanamide] | 0.98 |
| CS(=O)(=O)c1ccc(NC(=O)Nc2ccc3c(c2)C(=O)N(CCc2c[nH]cn2)C(c2ccc(Cl)cn2)C3)cc1 (centres unmarked) [Compound 33, 1-{3-(5-chloropyridin-2-yl)-2-[2-(1H-imidazol-4-yl)ethyl]-1-oxo-1,2,3,4-tetrahydroisoquinolin-7-yl}-3-[4-(methylsulfonyl)phenyl]urea] | 0.99 |
| O=C(O)[C@@H]1C2CCC([C@@H]1C(=O)Nc1ccc(Br)cc1)C21CC1 (relative stereo) [Compound 14, rel-(2R,3S)-3-[(4-bromophenyl)carbamoyl]spiro [bicyclo[2.2.1]heptane-7,1′-cyclopropane]-2-carboxylic acid] | 0.90 |
| CSc1ccc(NC(=O)Nc2ccc3c(c2)C(=O)N(CCc2c[nH]cn2)C(c2ccco2)C3)cc1 (centres unmarked) [Compound 23, 1-{3-(furan-2-yl)-2-[2-(1H-imidazol-4-yl)ethyl]-1-oxo-1,2,3,4-tetrahydroisoquinolin-7-yl}-3-[4-(methylsulfanyl)phenyl]urea] | 0.83 |

The remaining lines, values ahead:

| FPR2 (% eff) | SMILES |
| --- | --- |
| 0.93 | CC1(CCc2ccccc2O)NC(=O)N(NC(=O)Nc2ccc(Br)cc2)C1=O (centres unmarked) [Compound 109, 1-(4-bromophenyl)-3-{4-[2-(2-hydroxyphenyl)ethyl]-4-methyl-2,5-dioxoimidazolidin-1-yl}urea] |
| 100 | CCC(CC)(NC(=O)Nc1ccc(Br)cc1)C(=O)NCC(=O)O [Compound 113] |
| 0.86 | CC(C)C1(CO)NC(=O)N(NC(=O)Nc2ccc(Br)cc2)C1=O (centres unmarked) [Compound 132, 1-(4-bromophenyl)-3[4-(hydroxymethyl)-2,5-dioxo-4-(propan-2-yl)imidazolidin-1-yl]urea] |
| 0.98 | CC(C)CC(C)(NC(=O)Nc1ccc(Br)cc1)C(=O)O (centres unmarked) [Compound 110, 2-{[(4-bromophenyl)carbamoyl]amino}-2,4-dimethylpentanoic acid] |
| 0.95 | Cc1ccc(CCC2(C)NC(=O)N(NC(=O)Nc3ccc(Br)cc3)C2=O)o1 (centres unmarked) [Compound 97, 1-(4-bromophenyl)-3-{4-methyl-4-[2-(5-methylfuran-2-yl)ethyl]-2,5-dioxoimidazolidin-1-yl}urea] |
| 1.0 | CSc1ccc(NC(=O)N[C@@H](CC(C)C)C(=O)NCC(=O)O)cc1 [Compound 130, {[(2S)-4-methyl-2-({[4-(methylsulfanyl)phenyl]carbamoyl}amino)pentanoyl]amino}acetic acid] |
| 0.86 | O=C(Nc1ccc(Br)cc1)N[C@@H](Cc1ccccc1)C(=O)NCCO [Compound 58, (2S)-2-{[(4-bromophenyl)carbamoyl]amino}-N-(2-hydroxyethyl)-3-phenylpropanamide] |
| 1.0 | CCC[C@H](NC(=O)Nc1ccc(Br)cc1)C(=O)NCP(=O)(OC(C)C)OC(C)C [Compound 125, dipropan-2-yl ({[(2S)-2-{[(4-bromophenyl)carbamoyl]amino}pentanoyl]amino}methyl) phosphonate] |
| 98 | O=C(O)CNC(=O)[C@H](Cc1c[nH]c2ccccc12)NC(=O)Nc1ccc(Br)cc1 (stereo in doubt) [Compound 150, {[2-{[(4-bromophenyl)carbamoyl]amino}-3-(1H-indol-3-yl)propanoyl]amino}acetic acid] |
| 0.91 | CSCC[C@H](NC(=O)Nc1ccc(Br)cc1)C(=O)NCC(=O)O [Compound 144, {[(2S)-2-{[(4-bromophenyl)carbamoyl]amino}-4-(methylsulfanyl)butanoyl]amino}acetic acid] |
| 0.95 | CCC[C@H](NC(=O)[C@H](CC(C)C)NC(=O)Nc1ccc(Br)cc1)C(=O)O [Compound 101, (2S)-2-{[(2S)-2-{[(4-bromophenyl)carbamoyl]amino}-4-methylpentanoyl]amino} pentanoic acid] |
| 1.0 | CCC1(CCc2ccccc2C(=O)O)NC(=O)N(NC(=O)Nc2ccc(Br)cc2)C1=O (centres unmarked) [Compound 143, 2-[2-(1-{[(4-bromophenyl)carbamoyl]amino}-4-ethyl-2,5-dioxoimidazolidin-4-yl)ethyl]benzoic acid] |
| 0.99 | O=C(O)CNC(=O)[C@H](Cc1ccccc1)NC(=O)Nc1ccc(Br)cc1 [Compound 55, {[(2S)-2-{[(4-bromophenyl)carbamoyl]amino}-3-phenylpropanoyl]amino} acetic acid] |
| 1.0 | CCNC(=O)C1C(C(=O)Nc2ccc(Br)cc2)C2CCC1C21CC1 (centres unmarked) [Compound 47, N-(4-bromophenyl)-N′-ethylspiro[bicyclo[2.2.1]heptane-7,1′-cyclopropane]-2,3-dicarboxamide] |
| 0.85 | CC(C)C[C@H](NC(=O)Nc1ccc(Br)cc1)C(=O)N(C)CC(=O)OC(C)(C)C [Compound 154, tert-butyl {[(2S)-2-{[(4-bromophenyl)carbamoyl]amino}-4-methylpentanoyl](methyl)amino}acetate] |
| 0.91 | CC(C)C[C@H](NC(=O)Nc1ccc(Br)cc1)C(=O)NCS(=O)(=O)O [Compound 127, {[(2S)-2-{[(4-bromophenyl)carbamoyl]amino}4-methylpentanoyl]amino} methanesulfonic acid] |
| 0.76 | CC(C)C[C@H](NC(=O)Nc1ccc(Br)cc1)C(=O)NCCO [Compound 75, (2S)-2-{[(4-bromophenyl)carbamoyl]amino}-N-(2-hydroxyethyl)-4-methylpentanamide] |
| 1.0 | CCC[C@H](NC(=O)Nc1ccc(Br)cc1)C(=O)NCC(=O)OC(C)C [Compound 73, propan-2-yl {[(2S)-2-{[(4-bromophenyl)carbamoyl]amino}pentanoyl]amino}acetate] |
| 0.96 | CCC[C@H](NC(=O)Nc1ccc(Br)cc1F)C(=O)NCC(N)=O [Compound 81, (2S)-N-(2-amino-2-oxoethyl)-2-{[(4-bromo-2-fluorophenyl)carbamoyl]amino} pentanamide] |
